Assay results as given in patent US20240252454A1, “COMPOSITION COMPRISING AN INHIBITOR OF MITOCHONDRIAL TRANSCRIPTION” (LEAD DISCOVERY CENTER GMBH, priority 2021, published 2024).
Read-outs that look alike come from different tables or passages of the source.

Tests used:
Assay type in all cases: cell-based
[1] = test system: A2780; assay: CellTiter-GLO (CTG) assay, combinatorial matrix
Method: (§1) To determine the in vitro cellular viability, cellular ATP concentrations were measured using a luminescence-based homogenous assay format, as described here. […] Optimal cell density for each cell line was determined to guarantee linearity. For viability assays with compounds, cells were then seeded at a density of 200 to 1000 per well in 25 μl in 384-well plates (Greiner Bio-One, Frickenhausen, Germany). After overnight incubation at 37° C./5% CO2, 25 nl or 75 nl compounds were added to each sample well by using BIOMEK FXP Laboratory Automation Workstation (Beckman Coulter, USA). Wells with cells and 0.1% or 0.3% DMSO in culture medium were used as positive controls, wells with cells and 10 μM staurosporine (Selleck Chemicals, Huston, USA) in culture medium were used as negative controls. Upon incubation with compounds for 72 h at 37° C./5% CO2 25 μl Cell Titer Glo reagent (Promega, Madison, USA, European Pat. No. 1131441, U.S. Pat. Nos. 7,083,911, 7,452,663 and 7,732,128) 1:2 diluted with cell culture medium) was added to each well to determine cell viability. 384well-plates were placed for 2 min on an orbital microplate shaker and incubated for further 10 min at room temperature resulting in a stabilization of light signal. Luminescence was measured by Envision Plate Reader (Perkin Elmer, USA).
(§2) All in vitro cell culture experiments were carried out under near physiological glucose concentrations (5 mM) in at least two independent replicates.

[2] = test system: primary human blood cells (PBMC); assay: CellTiter-GLO (CTG) assay, combinatorial matrix; conditions: Homo sapiens, PBMC, hPBMCs, 72 hours, IMT at the μM of c0, untreated control =100%, read-out: Measured residual activity (cellular ATP content)
Method: as §1, §2
(§3) To establish the method described, N,N-dimethyl-2-[4-(o-tolyl)-2-oxo-chromen-7-yl]oxy-propanamide, (3S)-1-[2-[4-(2-chloro-4-fluoro-phenyl)-2-oxo-chromen-7-yl]oxypropanoyl]piperidine-3-carboxylic acid, (3S)-1-[(2R)-2-[4-(2-chloro-4-fluoro-phenyl)-2-oxo-chromen-7-yl]oxypropanoyl]piperidine-3-carboxylic acid and BAY-876 were first examined with regard to their effect on the cell growth of twelve different tumour cell lines and the IC50 values were determined. This initial study was followed by validation experiments in a matrix format and in the CTG assay, as described under Example 1), in two tumour cell lines from uterine and ovarian carcinoma (HEC59 and A2780), as well as in primary human blood cells (PBMC) (Table 7).
(§4) Combinations of one concentration of IMT (μM; y-axis) and 30 μM-33 nM BAY-876 (x-axis) were incubated for 72 hours with HEC59, hPBMCs or A2780 and then the cellular ATP-content was determined using the CellTiter-GLO assay format. A: Measured residual activity (%) based on an untreated control group (=100%). B: The combinatorial indices are provided, based on the reference groups treated with the corresponding concentration of only one inhibitor class, according to Berenbaum and Cou & Talalay. <1=synergism, 1-2=additivity, 2>=antagonism.

[3] = test system: HEC59; assay: CellTiter-GLO (CTG) assay, combinatorial matrix; conditions: HEC59, 72 hours, IMT at the μM of c0, untreated control =100%, read-out: Measured residual activity (cellular ATP content)
Method: as §1, §2, §3, §4

[4] = test system: HEC59; assay: CellTiter-GLO (CTG) assay, combinatorial matrix; conditions: 30 μM to 15 nM IMT + 30 μM to 40 nM BAY-876
[5] = test system: A2780; assay: SRB assay, IMT combined with inhibitor; conditions: A2780; dilution series of the IMT + MEK inhibitor Selumetinib (AZD6244) at constant 1 μM or 31 nM; compared to untreated or MEK inhibitor only (FIG. 1)
Method: In two studies, the ovarian cell line A2780 was tested for 72 hours with the IMT N,N-dimethyl-2-[4-(o-tolyl)-2-oxo-chromen-7-yl]oxy-propanamide (30 μM-15 nM) and the MEK inhibitor Selumetinib (30 μM-10 nM), or with the IMT 1-[2-[4-(2-chlorophenyl)-2-oxo-chromen-7-yl]oxypropanoyl]piperidine-3-sulfonamide (30 μM-15 nM) and the MEK inhibitor PD318088 (30 μM-10 nM).
Solforhodamine B assay is carried out as described in Voigt W. (2005) Sulforhodamine B Assay and Chemosensitivity. (Methods in Molecular Medicine™, vol 110. Humana Press. https://doi.org/10.1385/1-59259-869-2:039).
The determination of changes in cellular biomass was based on the Solforhodamine B assay format, carried out as described in Voigt W. (2005) Sulforhodamine B Assay and Chemosensitivity. (Methods in Molecular Medicine™, vol 110. Humana Press. https://doi.org/10.1385/1-59259-869-2:039).
as §2
First, 30 different cell lines from 14 different tissue types were tested in the SRB assay format. The cells were examined individually for changes in growth over a period of 120 hours with dilution series of both inhibitors. Untreated cells were used as a negative control group. Subsequently, a dilution series of the respective MAPK signalling pathway SOCs was treated in combination with a fixed concentration of 40 nM (3S)-1-[(2R)-2-[4-(2-chloro-4-fluoro-phenyl)-2-oxo-chromen-7-yl]oxypropanoyl]piperidine-3-carboxylic acid.

Cc1c(NC(=O)c2cc(C(N)=O)nc3cc(F)ccc23)c(C(F)(F)F)nn1Cc1ccc(C#N)cc1 [BAY-876]
activity at 0.04 µM ([1]; Homo sapiens, A2780, 72 hours, BAY-876 0.04 μM, IMT at the μM of c0, untreated control =100%, read-out: Measured residual activity (cellular ATP content)): 88% | activity at 0.123 µM ([1]; Homo sapiens, A2780, 72 hours, BAY-876 0.123 μM, IMT at the μM of c0, untreated control =100%, read-out: Measured residual activity (cellular ATP content)): 78% | activity at […] ([1]; Homo sapiens, A2780, 72 hours, BAY-876 0.37 μM, IMT at the μM of c0, untreated control =100%, read-out: Measured residual activity (cellular ATP content)): 90% | activity at 3.33 µM ([1]; Homo sapiens, A2780, 72 hours, BAY-876 3.33 μM, IMT at the μM of c0, untreated control =100%, read-out: Measured residual activity (cellular ATP content)): 78% | activity at 10 µM ([1]; Homo sapiens, A2780, 72 hours, BAY-876 10 μM, IMT at the μM of c0, untreated control =100%, read-out: Measured residual activity (cellular ATP content)): 51% | activity at 30 µM ([1]; Homo sapiens, A2780, 72 hours, BAY-876 30 μM, IMT at the μM of c0, untreated control =100%, read-out: Measured residual activity (cellular ATP content)): 10% | activity at 0.04 µM ([2]; BAY-876 0.04 μM): 104% | activity at […] ([2]; BAY-876 0.12 μM): 109% | activity at […] ([2]; BAY-876 0.37 μM): 90% | activity at 3.33 µM ([2]; BAY-876 3.33 μM): 98% | activity at 10 µM ([2]; BAY-876 10 μM): 87% | activity at 30 µM ([2]; BAY-876 30 μM): 101% | activity at 0.041 µM ([3]; BAY-876 0.041 μM): 74% | activity at 0.123 µM ([3]; BAY-876 0.123 μM): 59% | activity at […] ([3]; BAY-876 0.370 μM): 58% | activity at 1.111 µM ([3]; BAY-876 1.111 μM): 32% | activity at […] ([3]; BAY-876 3.3 μM): 18% | activity at 10 µM ([3]; BAY-876 10 μM): 11% | activity at 30 µM ([3]; BAY-876 30 μM): 8%

CC(Oc1ccc2c(-c3ccc(F)cc3Cl)cc(=O)oc2c1)C(=O)N1CCC[C@H](C(=O)O)C1 (stereo partly drawn) [(3S)-1-[2-[4-(2-chloro-4-fluoro-phenyl)-2-oxo-chromen-7-yl]oxypropanoyl]piperidine-3-carboxylic acid]
combination of IMT and GLUTi compared to treatment with only the GLUTi BAY-876 alone [4]: advantage of the combination | growth kinetics in the SRB assay format [5]: advantage of the combination treatment | combination of IMT and GLUTi compared to treatment with only the GLUTi BAY-876 alone ([1]; A2780, CTG matrix, 30 μM to 15 nM IMT + 30 μM to 40 nM BAY-876): advantage of the combination
